Assay results published in patent US20050219340A1, “Actinic ray curable ink composition, image forming method and ink-jet recording apparatus using the same” (KONICA MINOLTA MEDICAL & GRAPHIC, INC., priority 2004, published 2005).

Assay: physchem
Experimental: P(O/W), as described in the present invention, refers to the partition coefficient between 1-octanol and water and is as defined for the value which is treated as information to judge accumulativeness in the bodies of fish and shellfish, in the course of registration of new compounds, to conform in the Law Concerning Examination and Regulation of Manufacture etc. of Chemical Substances (a Japanese law), and is represented by the formula below; P(O/W)=CO/CW wherein CO represents the concentration (in mg/L) of a compound in the 1-octanol layer, while CW represents the concentration (in mg/L) of the above compound in the water layer.

COc1ccc([S+](c2ccc(OC)cc2)c2ccc(OC)cc2)cc1 [Compound S-1]
logP: 0.1

COc1ccc([S+](c2ccc(C)cc2)c2ccc(OC)cc2)cc1 [Compound S-2]
logP: 0.12

COc1ccc([S+](c2ccc(C)cc2)c2ccc(C)cc2)cc1 [Compound S-3]
logP: 0.12

COc1ccc([S+](c2ccc(OC)cc2)c2ccc(Oc3ccc(C)cc3)cc2)cc1 [Compound S-4]
logP: 0.15
